Each structure is given as a SMILES string. Several values for one entry are separate records, joined by “and”; a condition that tells them apart may be missing. Equal values may be shown once.

In data set [1] the test system is central CB1 receptor-driven responses. Also noted: method as in PMID 17630359. The conditions noted are these: cited from earlier work.
For another data set, the target named is T1, brain CB1 receptor (Rattus norvegicus, UniProt P20272).
T1 construct: Brain homogenates were prepared by adding TME buffer to pre-weighed tissue; from tissue; host or cells: brain homogenate of Sprague Dawley rats dosed p.o
Briefly: Ex vivo brain receptor occupancy. Type of data set: in vivo. On the procedure:
An ex vivo brain receptor occupancy assay was used to calculate the in vivo receptor occupancy of CE-178253 at selected doses. […] Brains were removed from the rats 2 hr after return of food. […] The homogenate was diluted to a concentration of 2 mg/mL using TME buffer. […] The plates were then covered and incubated for 90 min at room temperature on a plate shaker. Reactions were stopped by the addition of 100 μL ice cold 7.5% BSA in TME. The plates were aspirated then harvested onto GF/C filter plates (Perkin Elmer Life Sciences; Boston, MA) using ice-cold TME buffer. The filter plates had been pre-soaked in 50 μL 0.5% BSA in TME for 60 min. Filters were dried at room temperature for 30 min, after which 25 μL of Microscint™ (Perkin Elmer Life Sciences; Boston, MA) was added to each and the plates analyzed on a Microbeta counter. Care was taken in our assay to minimize drug-tissue dissociation by comparing binding in a time course and under various conditions. […] Experiments were run in triplicate with at least an n = 3 for each treatment group.

Data set [2] in a line: Four day DIO rat food intake and body weight study. The data set is classed as in vivo. To be noted: 4-day, DIO rats. On the procedure:
Male 15 week old S-D rats which had been maintained on a high fat diet (Research Diets, D12079BM, 45% kcal from fat) for 10 weeks were selected for the DIO weight loss study. DIO rats were singly housed were acclimated to handling and dosing and two days of food intake were recorded to establish baseline food intake values before dosing was initiated. The heaviest animals were randomly sorted and assigned to treatment groups (n = 8 per group). The mean starting weight of all animals was 639 ± 8 g. Rats were dosed (2 mls/kg) with veh. or CE-178253 according to body weight. FI and BW were recorded daily.
DIO rats were treated once daily with veh. (0.5% MC) or CE-178253 at doses of 0.3 mg/kg p.o. or 1 mg/kg p.o. in a 4-day study (Figures 6A and 6B). […] The effects on FI were apparent after the first doses and sustained over the 4-day study period. […] In contrast, there was no change in weight in veh-treated rats. Initial and final body weights of veh-treated rats were 643 ± 15 g and 645 ± 14 g, respectively. Initial and final body weights of 0.3 mg/kg CE-178253-treated rats were 632 ± 11 g and 616 ± 12 g, respectively. Initial and final body weights of 1 mg/kg CE-178253-treated rats were 637 ± 11 g and 602 ± 11 g, respectively. A statistically significant difference in BW between veh and the 1 mg/kg dose was observed (p < 0.05).

Data set [3] in a line: Spontaneous nocturnal food intake. The data set is classed as in vivo, rat. To be noted: for Decrease in FI compared to veh.: 2 hr time point. The source says:
All animal studies were approved by the Institutional Animal Care and Use Committee. Male Sprague Dawley rats on normal chow (8 weeks old, 250-300 g on arrival, 300-350 g on test day) were obtained from Charles River. After arrival, animals were individually housed and placed on powdered rat chow. Rats were maintained on a 12-hr light/dark cycle and received food and water ad libitum. In all studies CE-178253 and veh (0.5% methyl cellulose) administration to rats and mice was by oral gavage.
For the spontaneous, nocturnal FI assay, rats were administered veh. (0.5% methyl cellulose) or CE-178253 30 min prior to the start of the dark phase. Food consumption was monitored with electronic scales, and consumption was recorded every 10 min for 12 hr using an automated FI system (Columbus Instruments, Columbus, OH).
The first FI model used for determining anorectic efficacy of CE-178253 was spontaneous nocturnal feeding in rats. In rodents, most feeding activity takes place during the dark phase (nocturnal feeding cycle). In this model, male S-D rats were orally administered compound 30 min prior to the onset of the nocturnal phase. […] In addition, the effect of treatment on hourly FI was also assessed. […] No other time points in the interval analysis reach statistical significance. […] Cumulative food intake at the 2.5 hr time point was 3.2 ± 0.3, 2.4 ± 0.2, 0.5 ± 0.1 and 0.2 ± 0.1 in the veh, 0.3 mg/kg, 1 mg/kg, 3 mg/kg treated rats, respectively.

A further data set in a line: Rat oral PK studies. Type of data set: in vivo.
The nature of another data set: Indirect calorimetry. The conditions noted are these: for Respiratory Quotient (VCO2/VO2): veh 0.85 ± 0.03; for VO2, ave, 1-3 hr (± S-D), increase in oxygen consumption: veh 3 ± 5. The data set is classed as in vivo, rat. How it is done:
Whole body oxygen consumption was measured using an indirect calorimeter (Oxymax from Columbus Instruments, Columbus, OH) in male Sprague Dawley rats. The rats (300-380 g body weight) were placed in the calorimetry chambers and the chambers were placed in activity monitors. All studies were conducted during the light cycle. Prior to the measurement of oxygen consumption, the rats were fed standard chow ad libitum. During the measurement of oxygen consumption, food was not provided to the rats. Basal, pre-dose oxygen consumption and ambulatory activity were measured every 10 min for 2.5 to 3 hr. At the end of the basal pre-dosing period, the chambers were opened and the animals were administered a single dose of compound (or veh.) by oral gavage. CE-178253 was prepared in 0.5% methylcellulose as veh. Oxygen consumption and ambulatory activity were measured every 10 min for an additional 1-6 hr after dosing. Resting oxygen consumption, during pre- and post-dosing, was calculated by averaging the 10-min O2 consumption values, excluding periods of high ambulatory activity (ambulatory activity count > 100) and excluding the first 5 values of the pre-dose period and the first value from the post-dose period. Change in oxygen consumption is reported as percent and is calculated by dividing the post-dosing resting oxygen consumption by the pre-dose oxygen consumption (X 100). VO2, VCO2, RER and locomotor activity were all measured.

T1 sequence (P20272 whole entry): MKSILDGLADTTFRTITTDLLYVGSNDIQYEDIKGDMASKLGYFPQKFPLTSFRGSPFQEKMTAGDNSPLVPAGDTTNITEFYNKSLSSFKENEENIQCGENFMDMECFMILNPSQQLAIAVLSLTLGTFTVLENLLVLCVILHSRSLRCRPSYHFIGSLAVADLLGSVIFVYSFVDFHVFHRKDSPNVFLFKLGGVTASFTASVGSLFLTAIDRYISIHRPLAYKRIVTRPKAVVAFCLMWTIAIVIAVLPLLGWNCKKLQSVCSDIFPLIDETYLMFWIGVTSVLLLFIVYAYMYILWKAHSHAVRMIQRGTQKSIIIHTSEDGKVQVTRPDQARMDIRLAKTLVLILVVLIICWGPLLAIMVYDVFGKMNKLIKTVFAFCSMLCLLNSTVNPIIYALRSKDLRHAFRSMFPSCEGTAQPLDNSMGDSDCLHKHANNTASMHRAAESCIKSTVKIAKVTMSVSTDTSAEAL

The EC50 is the concentration giving half of the maximal effect. For orientation: Tmax means the time at which the peak concentration occurs. Consider `CCNC1(C(N)=O)CN(c2nc(C)nc3c(-c4ccc(Cl)cc4)c(-c4ccccc4Cl)nn23)C1` [CE-178253], for which, in data set [1], the “Effect on CP-55940 responses in all four components of the tetrad” value was “dose-dependently reversed”. The “Receptor occupancy required for maximum efficacy” value at brain CB1 receptor (calculated, energy intake and expenditure models) is 50-75%. In addition, the receptor occupancy at 0.3 mg/kg on brain CB1 receptor (rat, po, 0.3 mg/kg p.o., brains removed 2 hr after return of food, read-out: % Receptor Occupancy (mean ± S-D)) is 27 ± 12%. Further, the receptor occupancy at 1 mg/kg at brain CB1 receptor (rat, po, 1 mg/kg p.o., brains removed 2 hr after return of food, read-out: % Receptor Occupancy (mean ± S-D)) stood at 64 ± 2%. Also, the receptor occupancy at 3 mg/kg at brain CB1 receptor (rat, po, 3 mg/kg p.o., brains removed 2 hr after return of food, read-out: % Receptor Occupancy (mean ± S-D)) came to 78 ± 6%. Moreover, on brain CB1 receptor (rat, po, 10 mg/kg p.o., brains removed 2 hr after return of food, read-out: % Receptor Occupancy (mean ± S-D)), the receptor occupancy at 10 mg/kg came out at 82 ± 2%. The “Decrease in body weight compared to veh” value is recorded as 3.3% in data set [2] (0.3 mg/kg p.o. once daily) and 5.9% in data set [2] (1 mg/kg p.o. once daily). In addition, the Final body weight in data set [2] (0.3 mg/kg, initial 632 ± 11 g) was 616 ± 12 g; in data set [2] (1 mg/kg, initial 637 ± 11 g) it was 602 ± 11 g. In addition, the “Decrease in FI compared to veh.” value came out at 25% in data set [3] (0.3 mg/kg p.o.), 84% in data set [3] (1 mg/kg p.o.) and 94% in data set [3] (3 mg/kg p.o.). In addition, in data set [3] (Rattus norvegicus, unbound plasma concentration (Cave, fu, p, 0-2.5 hr), cumulative FI at 2.5 hr post dose, read-out: Unbound EC50, reduction of food intake), the EC50 worked out at 500 pM. Moreover, the “Exposure in chow-fed versus DIO rats” value in the data set “Rat oral PK studies” (PK studies) was “no differences in exposure”. Also, in “Rat oral PK studies” (Sprague Dawley, rat, in vivo, oral, data not shown), the Tmax was determined as 1 h. Also, the “Respiratory Quotient (VCO2/VO2)” value is 0.74 ± 0.02 in the data set “Indirect calorimetry” (1 mg/kg p.o.) and 0.75 ± 0.03 in “Indirect calorimetry” (3 mg/kg p.o.). The “VO2, ave, 1-3 hr (± S-D), increase in oxygen consumption” value was 28% and 28 ± 7 % in “Indirect calorimetry” (1 mg/kg p.o.); 39% and 39 ± 5 % in “Indirect calorimetry” (3 mg/kg p.o.). For the same compound, the “Respiratory quotient after dosing” value in the data set “Indirect calorimetry” (declined from 0.85 over the first hr, dose not stated) is reported as 0.75. Moreover, in “Indirect calorimetry” (rats, dose not stated), the “Acute stimulation of energy expenditure” value was “greater than 30%”.

(Values after PMC2933614, “Quantitative in vitro and in vivo pharmacological profile of CE-178253, a potent and selective cannabinoid type 1 (CB1) Receptor Antagonist” (BMC Pharmacology, 2010).)
